Data set [1] deals with RAW264.7. The experiment in a line: Cytotoxicity against mouse RAW 264.7 cells assessed as reduction in cell proliferation at 25 uM by MTT assay. The class given is cell-based. Particulars: raw264.7, 25 µM.
In data set [2] the test system is RAW264.7. The experiment in a line: Anti-inflammatory activity in mouse RAW264.7 cells assessed as inhibition of LPS-induced nitric oxide synthase production measured after 24 hrs by ELISA. The data set is classed as functional, cell-based. Particulars: RAW264.7, 24 h. (In general: ELISA stands for enzyme-linked immunosorbent assay.)
Data set [3] concerns RAW264.7. The experiment in a line: Antiinflammatory activity in mouse RAW264.7 cells assessed as reduction in LPS-induced IL-1 beta production at 12.5 uM measured after 24 hrs by ELISA. The class given is functional, cell-based.
Data set [4] concerns Mus musculus. The experiment in a line: Anti-inflammatory activity in Kunming mouse assessed as inhibition of xylene-induced ear edema at 12.5 mg/kg, po dosed 1 hr prior to xylene challenge and measured at 30 mins post xylene injection relative to control. The class given is functional. The note with it: 1.5 h, time 90 min.
Data set [5] deals with T1, Nitric oxide synthase, inducible (Mus musculus, UniProt P29477).
T1 sequence (P29477 whole entry): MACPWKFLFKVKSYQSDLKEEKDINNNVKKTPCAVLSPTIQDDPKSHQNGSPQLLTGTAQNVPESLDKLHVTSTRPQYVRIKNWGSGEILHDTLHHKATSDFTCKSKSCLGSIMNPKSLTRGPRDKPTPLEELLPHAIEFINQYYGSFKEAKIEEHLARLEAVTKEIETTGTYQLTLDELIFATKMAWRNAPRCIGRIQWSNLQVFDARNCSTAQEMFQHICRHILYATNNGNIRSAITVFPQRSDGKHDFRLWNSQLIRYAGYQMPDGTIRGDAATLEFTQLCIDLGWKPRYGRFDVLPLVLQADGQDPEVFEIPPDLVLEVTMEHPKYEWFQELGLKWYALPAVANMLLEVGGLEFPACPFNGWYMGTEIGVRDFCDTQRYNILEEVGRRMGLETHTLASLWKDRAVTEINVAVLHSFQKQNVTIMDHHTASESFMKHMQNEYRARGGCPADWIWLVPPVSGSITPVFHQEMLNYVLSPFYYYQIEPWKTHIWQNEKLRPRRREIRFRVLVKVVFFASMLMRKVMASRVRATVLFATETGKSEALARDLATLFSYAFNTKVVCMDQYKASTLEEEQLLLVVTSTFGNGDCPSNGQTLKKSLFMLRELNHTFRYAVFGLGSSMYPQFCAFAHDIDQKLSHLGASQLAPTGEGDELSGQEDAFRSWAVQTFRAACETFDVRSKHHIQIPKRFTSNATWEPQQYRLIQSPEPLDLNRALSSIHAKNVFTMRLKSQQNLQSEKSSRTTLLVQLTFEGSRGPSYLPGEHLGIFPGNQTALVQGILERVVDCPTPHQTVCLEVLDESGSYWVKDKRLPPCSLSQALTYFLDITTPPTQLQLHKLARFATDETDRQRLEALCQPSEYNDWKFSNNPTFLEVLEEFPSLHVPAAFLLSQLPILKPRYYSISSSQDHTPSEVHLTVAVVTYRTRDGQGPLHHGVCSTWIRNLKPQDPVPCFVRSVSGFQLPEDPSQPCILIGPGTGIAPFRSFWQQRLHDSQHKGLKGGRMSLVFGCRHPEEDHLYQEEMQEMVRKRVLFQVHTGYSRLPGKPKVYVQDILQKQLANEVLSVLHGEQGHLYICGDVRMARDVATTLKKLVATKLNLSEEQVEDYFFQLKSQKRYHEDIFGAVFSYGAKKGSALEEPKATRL
Kind of data set: Inhibition of iNOS in mouse RAW264.7 cells assessed as inhibition of LPS-induced nitric oxide overproduction incubated for 24 hrs by Griess assay. The class given is cell-based. A general note: Griess reagent forms a coloured azo dye with nitrite.

Data set [6] relates to RAW264.7. Kind of data set: Antiinflammatory activity in mouse RAW264.7 cells assessed as reduction in LPS-induced TNF-alpha production at 12.5 uM measured after 24 hrs by ELISA. The data set is classed as functional, cell-based.
Data set [7] has as its system RAW264.7. The experiment in a line: Antiinflammatory activity in mouse RAW264.7 cells assessed as reduction in LPS-induced IL-6 production at 12.5 uM measured after 24 hrs by ELISA. The data set is classed as functional, cell-based.
Data set [8] deals with Mus musculus. Kind of data set: Anti-inflammatory activity against LPS-induced ALI Kunming mouse model assessed as reduction in neutrophil infiltration in lungs by measuring decrease in MPO activity at 3.125 to 12.5 mg/kg, po administered 4 hrs prior to LPS instillation and measured at 12 hrs post-LPS instillation. The data set is classed as functional, organism-based. The note with it: dose mg/kg 3.125-12.5, time 16.0 hrs.

Data set [9] relates to Mus musculus. Kind of data set: Anti-inflammatory activity against LPS-induced ALI Kunming mouse model assessed as reduction in iNOS expression in lung at 3.125 to 12.5 mg/kg, po administered 4 hrs prior to LPS instillation and measured at 12 hrs post-LPS instillation by immunohistochemistry. The data set is classed as functional, organism-based. Particulars: dose mg/kg 3.125-12.5, time 16.0 hrs.

Data set [10] relates to Mus musculus. The experiment in a line: Anti-inflammatory activity against LPS-induced ALI Kunming mouse model assessed as reduction in TNF-alpha level in serum at 3.125 to 12.5 mg/kg, po administered 4 hrs prior to LPS instillation and measured at 12 hrs post-LPS instillation by ELISA. The data set is classed as functional, organism-based. The note with it: dose mg/kg 3.125-12.5, time 16.0 hrs.

Data set [11] concerns Mus musculus. The experiment in a line: Anti-inflammatory activity against LPS-induced ALI Kunming mouse model assessed as reduction in iNOS level in serum at 3.125 to 12.5 mg/kg, po administered 4 hrs prior to LPS instillation and measured at 12 hrs post-LPS instillation by ELISA. The data set is classed as functional, organism-based. Particulars: dose mg/kg 3.125-12.5, time 16.0 hrs.

In data set [12] the test system is Mus musculus. The experiment in a line: Anti-inflammatory activity against LPS-induced ALI Kunming mouse model assessed as reduction in inflammatory infiltration in lungs and pulmonary congestion at 3.125 to 12.5 mg/kg, po administered 4 hrs prior to LPS instillation and measured at 12 hrs post-LPS instillation by hematoxylin-eosin staining based analysis. The data set is classed as functional, organism-based. The note with it: dose mg/kg 3.125-12.5, time 16.0 hrs.

The subject of data set [13] is Mus musculus. Kind of data set: Anti-inflammatory activity against LPS-induced ALI Kunming mouse model assessed as reduction in lung edema by measuring reduction in lung wet-to-dry ratio at 3.125 to 12.5 mg/kg, po administered 4 hrs prior to LPS instillation and measured at 12 hrs post-LPS instillation. The class given is functional, organism-based. The note with it: dose mg/kg 3.125-12.5, time 16.0 hrs.

Data set [14] deals with Mus musculus. Kind of data set: Anti-inflammatory activity against LPS-induced ALI Kunming mouse model assessed as reduction in IL-1 beta level in serum at 3.125 to 12.5 mg/kg, po administered 4 hrs prior to LPS instillation and measured at 12 hrs post-LPS instillation by ELISA. The data set is classed as functional, organism-based. Particulars: dose mg/kg 3.125-12.5, time 16.0 hrs.

The test system of data set [15] is RAW264.7. The experiment in a line: Anti-inflammatory activity in mouse RAW264.7 cells assessed as reduction in LPS-induced iNOS mRNA expression at 12.5 uM by RT-PCR analysis. The data set is classed as functional, cell-based.
For data set [16], the system named is Mus musculus. The experiment in a line: Anti-inflammatory activity against LPS-induced ALI Kunming mouse model assessed as reduction in IL-6 level in serum at 3.125 to 12.5 mg/kg, po administered 4 hrs prior to LPS instillation and measured at 12 hrs post-LPS instillation by ELISA. The class given is functional, organism-based. The note with it: dose mg/kg 3.125-12.5, time 16.0 hrs.

The species named for data set [17] is Mus musculus. Particulars: Kunming, dose 12.5 mg/kg, time 90.0 min.

The source made the active and inactive calls. No cut-off for these calls is given here.

Eight compounds from ChEMBL document CHEMBL4665856, “Design and synthesis of new disubstituted benzoxazolone derivatives that act as iNOS inhibitors with potent anti-inflammatory activity against LPS-induced acute lung injury (ALI)” (Bioorg Med Chem, 2020) can be followed below.

For orientation: IC50 means the concentration that inhibits the measured activity by half. In general, inhibition in vivo refers to the change of the read-out against control, counted positive when it falls. Regarding `Cn1cnc(S(=O)(=O)Oc2cccc3oc(=O)n(CCc4ccccc4)c23)c1`, the Activity result in the data set on RAW264.7 [1] is recorded as “Non-Toxic”. Also, the concentration for half-maximal inhibition (IC50) in the data set with RAW264.7 [2] amounted to 9.73 µM; in data set [5], 13.4 µM. Further, the result in the data set with RAW264.7 [3], with RAW264.7 [6] and in the data set with RAW264.7 [7] was Active. For the same compound, the inhibition in vivo at 12.5 mg/kg with Mus musculus [4] is greater than 50%.
Turning to `CN(C)c1cccc2c(S(=O)(=O)Oc3cccc4oc(=O)n(CCc5ccccc5)c34)cccc12`, the Activity result in the data set on RAW264.7 [1] is “Non-Toxic”; in the data set with Mus musculus [8] it was “Dose-dependent effect”; in the data set with Mus musculus [9] it was “Dose-dependent effect”; in the data set on Mus musculus [10], “Dose-dependent effect”; in the data set on Mus musculus [11] it was “Dose-dependent effect”; in the data set with Mus musculus [12], “Dose-dependent effect”. The Activity result with Mus musculus [13], in the data set on Mus musculus [14] and in the data set with Mus musculus [16] was “Dose-dependent effect” each time. The IC50 in the data set with RAW264.7 [2] was 3.34 µM; in data set [5], 14.7 µM. Further, the outcome in the data set on RAW264.7 [3], in the data set with RAW264.7 [15], in the data set on RAW264.7 [6] and in the data set with RAW264.7 [7] was Active. Moreover, the inhibition in vivo at 12.5 mg/kg in the data set on Mus musculus [4] was greater than 50%.
As for `Cc1ccc(Cn2c(=O)oc3cccc(OS(=O)(=O)c4cn(C)cn4)c32)cc1`, in the data set with RAW264.7 [1], the Activity result was “Non-Toxic”.
`N=C(NCCC[C@H](N)C(=O)O)N[N+](=O)[O-]` [NITROARGININE]: the half-inhibitory concentration (IC50) with RAW264.7 [2] came to 2.92 µM; in data set [5], 27.6 µM. The inhibition entry in the data set filed under Mus musculus [17] is “Active”.
Take `Cn1cnc(S(=O)(=O)Oc2cccc3oc(=O)n(Cc4ccccc4)c23)c1`: in the data set with RAW264.7 [1], the Activity entry is “Non-Toxic”. In addition, the outcome in the data set on RAW264.7 [3], with RAW264.7 [6] and in the data set with RAW264.7 [7] was Active. In the data set on Mus musculus [4], the inhibition in vivo at 12.5 mg/kg was greater than 50%.
Take `Cn1cnc(S(=O)(=O)Oc2cccc3oc(=O)n(Cc4ccc([N+](=O)[O-])cc4)c23)c1`: the Activity result in the data set on RAW264.7 [1] is recorded as “Non-Toxic”.
On to `Cc1ccccc1S(=O)(=O)Oc1cccc2oc(=O)n(CCc3ccccc3)c12`, for which the Activity result in the data set with RAW264.7 [1] was “Non-Toxic”.
For the compound `CN(C)c1cccc2c(S(=O)(=O)Oc3cccc4oc(=O)n(Cc5ccccc5)c34)cccc12`, the Activity result with RAW264.7 [1] is “Non-Toxic”. For the same compound, the IC50 came out at 4.61 µM in the data set with RAW264.7 [2] and 16.4 µM in [5]. Also, the result in the data set with RAW264.7 [3], in the data set with RAW264.7 [6] and in the data set on RAW264.7 [7] was Active. In addition, the inhibition in vivo at 12.5 mg/kg with Mus musculus [4] was greater than 50%.
